From patent publication US7420001B2 (Wyeth, priority 2003, dated 2008)
Where two headings read alike, the source gives them in different places.

Legend:
[1] = target: T1, MMP-2 (Homo sapiens, UniProt P08253); assay: In-vitro fluorescence assay of MMP-2 activity; format: biochemical; conditions: recombinant human MMP-2; read-out: MMP-2 IC50
T1 construct: purchased Oncogene Research Products (Calbiochem) PF023
T1 sequence (P08253 110-660): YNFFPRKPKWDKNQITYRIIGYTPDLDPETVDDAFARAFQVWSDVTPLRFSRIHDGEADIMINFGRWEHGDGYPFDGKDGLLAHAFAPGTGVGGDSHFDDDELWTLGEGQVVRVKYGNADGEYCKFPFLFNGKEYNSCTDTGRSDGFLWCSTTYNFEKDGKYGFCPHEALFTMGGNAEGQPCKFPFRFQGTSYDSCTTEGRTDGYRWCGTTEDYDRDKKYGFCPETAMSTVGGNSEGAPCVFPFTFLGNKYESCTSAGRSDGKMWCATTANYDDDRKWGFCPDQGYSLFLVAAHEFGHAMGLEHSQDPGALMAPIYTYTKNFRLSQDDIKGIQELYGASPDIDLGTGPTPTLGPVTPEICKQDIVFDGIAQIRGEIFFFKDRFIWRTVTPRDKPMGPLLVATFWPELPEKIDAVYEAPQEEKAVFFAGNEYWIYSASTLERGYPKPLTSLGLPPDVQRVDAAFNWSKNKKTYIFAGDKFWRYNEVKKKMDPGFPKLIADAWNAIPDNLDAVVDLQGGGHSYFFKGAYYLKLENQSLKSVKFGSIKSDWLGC

[2] = target: T2, MMP-13 (Homo sapiens, UniProt P45452); assay: In-vitro fluorescence assay of MMP-13 activity; format: biochemical
T2 construct: made in house

[3] = recombinant human catalytic domain of MMP-13, read-out: MMP-13 IC50

Structure (SMILES) | IC50 [1] [nM] | IC50 [2, 3] [nM] | IC50 ([2]; MMP-13 IC50, recombinant human catalytic domain of MMP-13) [nM]
COc1cccc2oc(C(=O)Nc3ccc(-c4ccc(S(=O)(=O)N[C@H](C(=O)O)C(C)C)cc4)cc3)cc12 [Example 11, N-[(4′-{[(4-methoxy-1-benzofuran-2-yl)carbonyl]amino}-1,1′-biphenyl-4-yl)sulfonyl]-L-valine] | 16 | 2.3 | 
COc1c(I)ccc2oc(C(=O)Nc3ccc(-c4ccc(S(=O)(=O)N[C@H](C(=O)O)C(C)C)cc4)cc3)c(C)c12 [Example 120, (S)-2-{4′-[(5-Iodo-4-methoxy-3-methyl-benzofuran-2-carbonyl)-amino]-biphenyl-4-sulfonylamino}-3-methyl-butyric acid] | 1370 | 2.1 | 
CC(C)[C@H](NS(=O)(=O)c1ccc(-c2ccc(NC(=O)c3cc4cc(NS(=O)(=O)c5ccccc5)ccc4o3)cc2)cc1)C(=O)O [Example 10, 4′-[(5-Benzenesulfonylamino-benzofuran-2-carbonyl)-amino]-biphenyl-4-sulfonyl-L-valine] | 19 | 3.4 | 
COc1c(Br)ccc2oc(C(=O)Nc3ccc(-c4ccc(S(=O)(=O)NC(C(=O)O)C(C)C)cc4)cc3)c(C)c12 (stereo in doubt) [Example 119, (R)-2-{4′-[(5-Bromo-4-methoxy-3-methyl-benzofuran-2-carbonyl)-amino]-biphenyl-4-sulfonylamino}-3-methyl-butyric acid] | 688 | 3.4 | 
CCc1c(C(=O)Nc2ccc(-c3ccc(S(=O)(=O)N[C@H](C(=O)O)C(C)C)cc3)cc2)oc2ccccc12 [Example 58, L-2-{4′-[(3-Ethyl-benzofuran-2-carbonyl)-amino]-biphenyl-4-sulfonylamino}-3-methyl-butyric acid] | 1770 | 56 | 
COC/C=C\c1cccc2oc(C(=O)Nc3ccc(-c4ccc(S(=O)(=O)N[C@H](C(=O)O)C(C)C)cc4)cc3)c(C)c12 [Example 25, L-2-(4′-{[4-(3-Methoxy-Z-propenyl)-3-methyl-benzofuran-2-carbonyl]-amino}-biphenyl-4-sulfonylamino)-3-methyl-butyric acid] | 6320 | 14 | 
Cc1c(C(=O)Nc2ccc(-c3ccc(S(=O)(=O)N[C@H](C(=O)O)C(C)C)cc3)cc2)oc2cccc(NS(=O)(=O)c3ccccc3)c12 [Example 71, L-2-{4′-[(4-Benzenesulfonylamino-3-methyl-benzofuran-2-carbonyl)-amino]-biphenyl-4-sulfonylamino}-3-methyl-butyric acid] | 6020 | 8.1 | 
Cc1c(C(=O)Nc2ccc(-c3ccc(S(=O)(=O)N[C@H](C(=O)O)C(C)C)cc3)cc2)oc2cccc(CO)c12 [Example 92, N-{[4′-({[4-(Hydroxymethyl)-3-methyl-1-benzofuran-2-yl]carbonyl}amino)-1,1′-biphenyl-4-yl]sulfonyl}-L-valine] | 3760 | 25 | 
Cc1c(C(=O)Nc2ccc(-c3ccc(S(=O)(=O)N[C@H](C(=O)O)C(C)C)cc3)cc2)oc2cccc(NC(=O)OC(C)(C)C)c12 [Example 59, L-2-{4′-[(4-tert-Butoxycarbonylamino-3-methyl-benzofuran-2-carbonyl)-amino]-biphenyl-4-sulfonylamino}-3-methyl-butyric acid] | 3270 | 32 | 
CC(C)[C@H](NS(=O)(=O)c1ccc(-c2ccc(NC(=O)c3cc4cc(Br)ccc4o3)cc2)cc1)C(=O)O [Example 84, N-[(4′-{[(5-Bromo-1-benzofuran-2-yl)carbonyl]amino}-1,1′-biphenyl-4-yl)sulfonyl]-L-valine] | 0.9 | 0.6 | 
Cc1c(C(=O)Nc2ccc(-c3ccc(S(=O)(=O)N[C@H](C(=O)O)C(C)C)cc3)cc2)oc2cccc(-c3ccoc3)c12 [Example 113, (S)-2-{4′-[(4-Furan-3-yl-3-methyl-benzofuran-2-carbonyl)-amino]-biphenyl-4-sulfonylamino}-3-methyl-butyric acid] | 2060 |  | 6.4

More lines, now with the values ahead:

IC50 [1] [nM] | IC50 [2, 3] [nM] | IC50 ([2]; MMP-13 IC50, recombinant human catalytic domain of MMP-13) [nM] | Structure (SMILES)
2000 | 5.8 |  | COC(C)c1cccc2oc(C(=O)Nc3ccc(-c4ccc(S(=O)(=O)N[C@H](C(=O)O)C(C)C)cc4)cc3)c(C)c12 (stereo partly drawn) [Example 101, N-{[4′-({[4-(1-methoxyethyl)-3-methyl-1-benzofuran-2-yl]carbonyl}amino)-1,1′-biphenyl-4-yl]sulfonyl}-L-valine]
1.5 | 0.7 |  | COc1ccc2oc(C(=O)Nc3ccc(-c4ccc(S(=O)(=O)N[C@H](C(=O)O)C(C)C)cc4)cc3)cc2c1 [Example 104, N-[(4′-{[(5-methoxy-1-benzofuran-2-yl)carbonyl]amino}-1,1′-biphenyl-4-yl)sulfonyl]-L-valine]
3.3 | 0.7 |  | CC(C)[C@H](NS(=O)(=O)c1ccc(-c2ccc(NC(=O)c3cc4cc([N+](=O)[O-])ccc4o3)cc2)cc1)C(=O)O [Example 6, N-[(4′-{[(5-nitro-1-benzofuran-2-yl)carbonyl]amino}-1,1′-biphenyl-4-yl)sulfonyl]-L-valine]
8000 | 24 |  | Cc1c(C(=O)Nc2ccc(-c3ccc(S(=O)(=O)N[C@H](C(=O)O)C(C)C)cc3)cc2)oc2cccc(CCC3CC3)c12 [Example 24, L-2-(4′-{[4-(2-Cyclopropyl-ethyl)-3-methyl-benzofuran-2-carbonyl]-amino}-biphenyl-4-sulfonylamino)-3-methyl-butyric acid]
8890 | 28 |  | Cc1c(C(=O)Nc2ccc(-c3ccc(S(=O)(=O)N[C@H](C(=O)O)C(C)O)cc3)nc2)oc2cccc(NS(C)(=O)=O)c12 (stereo partly drawn) [Example 38, L-3-Hydroxy-2-(4-{5-[(4-methanesulfonylamino-3-methyl-benzofuran-2-carbonyl)-amino]-pyridin-2-yl}-benzenesulfonylamino)-butyric acid]
149 | 17 |  | CC(C)[C@H](NS(=O)(=O)c1ccc(-c2ccc(NC(=O)c3nc4cc(C(F)(F)F)ccc4s3)cc2)cc1)C(=O)O [Example 131, (S)-3-Methyl-2-{4′-[(5-trifluoromethyl-benzothiazole-2-carbonyl)-amino]-biphenyl-4-sulfonylamino}-butyric acid]
4770 | 11.9 |  | Cc1c(C(=O)Nc2ccc(-c3ccc(S(=O)(=O)N[C@H](C(=O)O)C(C)C)cc3)cc2)oc2cccc(N3CCCS3(=O)=O)c12 [Example 73, L-2-(4′-{[4-(1,1-Dioxo-1λ^6-isothiazolidin-2-yl)-3-methyl-benzofuran-2-carbonyl]-amino}-biphenyl-4-sulfonylamino)-3-methyl-butyric acid]
7710 | 45 |  | Cc1c(C(=O)Nc2ccc(-c3ccc(S(=O)(=O)N[C@H](C(=O)O)C(C)C)cc3)cc2)oc2cccc(NC(=O)C(C)C)c12 [Example 50, L-2-{4′-[(4-Isobutyrylamino-3-methyl-benzofuran-2-carbonyl)-amino]-biphenyl-4-sulfonylamino}-3-methyl-butyric acid]
1590 | 41 |  | Cc1c(C(=O)Nc2ccc(-c3ccc(S(=O)(=O)N(C)[C@H](C(=O)O)C(C)C)cc3)cc2)oc2cccc(C#N)c12 [Example 42, L-2-({4′-[(4-Cyano-3-methyl-benzofuran-2-carbonyl)-amino]-biphenyl-4-sulfonyl}-methyl-amino)-3-methyl-butyric acid]
7000 | 93 |  | Cc1c(C(=O)Nc2ccc(-c3ccc(S(=O)(=O)N[C@H](C(=O)O)C(C)C)cc3)cc2)oc2cccc(CCC(C)(C)C)c12 [Example 57, L-2-(4′-{[^4-(3,^3-Dimethyl-butyl)-3-methyl-benzofuran-2-carbonyl]-amino}-biphenyl-4-sulfonylamino)-3-methyl-butyric acid]
3520 | 8.5 |  | Cc1c(C(=O)Nc2ccc(-c3ccc(S(=O)(=O)N[C@H](C(=O)O)C(C)C)cc3)cc2)oc2cccc(OCC(=O)O)c12 [Example 159, L-2-{4′-[(4-Carboxymethoxy-3-methyl-benzofuran-2-carbonyl)-amino]-biphenyl-4-sulfonylamino}-3-methyl-butyric acid]
4.1 | 0.3 |  | CC(C)[C@H](NS(=O)(=O)c1ccc(-c2ccc(NC(=O)c3cc4cc(Cl)ccc4o3)cc2)cc1)C(=O)O [Example 4]
7500 | 30 |  | Cc1c(C(=O)Nc2ccc(-c3ccc(S(=O)(=O)N[C@H](C(=O)O)C(C)C)cc3)nc2)oc2cccc(NS(C)(=O)=O)c12 [Example 39, L-2-(4-{5-[(4-Methanesulfonylamino-3-methyl-benzofuran-2-carbonyl)-amino]-pyridin-2-yl}-benzenesulfonylamino)-3-methyl-butyric acid]
2340 | 16 |  | Cc1c(C(=O)Nc2ccc(-c3ccc(S(=O)(=O)N[C@H](C(=O)O)C(C)C)cc3)cc2)oc2cccc(NS(=O)(=O)C(C)C)c12 [Example 69, L-3-Methyl-2-(4′-{[3-methyl-4-(propane-2-sulfonylamino)-benzofuran-2-carbonyl]-amino}-biphenyl-4-sulfonylamino)-butyric acid]
